Results taken from US8754079B2, “Cycloalkyl containing thienopyrimidines for pharmaceutical compositions” (Boehringer Ingelheim International GmbH, priority 2010, dated 2014).
Counter-ions that a name gives are not always drawn.

What follows are compounds tested against T1, MNK2 (Homo sapiens, UniProt Q9HBH9) (assay: Mnk2a in vitro kinase assay (indirect fluorescence polarization)). Settings: pre-activated GST-Mnk2a 2.5 nM, 20 μM ATP, 30 μM substrate peptide.
T1 construct: the open reading frames of human Mnk1 and Mnk2a were amplified from cDNA; made in house; host or cells: E. coli BL21
Type: biochemical
Outline: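 Human GST-Mnk2a was expressed in E. coli and activated in vitro with 150 nM pre-activated ERK2 and 50 μM ATP in HEPES pH 7.4/MgCl2 buffer (45 min, 30 °C). Activity on an eIF4E Ser209-derived 12mer peptide was read by competitive fluorescence polarization with a phospho-specific antibody.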

T1 sequence (Q9HBH9 whole entry): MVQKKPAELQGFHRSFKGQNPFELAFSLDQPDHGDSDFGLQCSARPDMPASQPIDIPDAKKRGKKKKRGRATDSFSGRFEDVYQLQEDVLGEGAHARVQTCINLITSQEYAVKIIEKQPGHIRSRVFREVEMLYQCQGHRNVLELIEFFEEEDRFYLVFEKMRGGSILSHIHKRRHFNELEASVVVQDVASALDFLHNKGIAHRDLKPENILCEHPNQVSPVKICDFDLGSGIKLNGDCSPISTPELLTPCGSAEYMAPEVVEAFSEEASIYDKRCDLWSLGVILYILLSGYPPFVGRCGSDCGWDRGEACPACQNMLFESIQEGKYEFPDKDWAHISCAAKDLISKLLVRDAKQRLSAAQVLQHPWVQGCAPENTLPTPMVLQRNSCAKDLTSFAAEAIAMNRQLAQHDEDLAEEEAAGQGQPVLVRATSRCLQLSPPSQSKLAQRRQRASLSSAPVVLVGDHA

In order of rising IC50:
1. CO[C@H]1CC[C@H](Oc2cc(F)ccc2Nc2ncnc3sc(C(=O)NCCCn4ccnc4)c(C)c23)CC1 [Example 197]  1 nM
2. Cc1c(C(N)=O)sc2ncnc(Nc3ccc(F)cc3OC3CCCC3)c12 [Example 244, 4-(2-Cyclopentoxy-4-fluoro-phenylamino)-5-methyl-thieno[2,3-d]pyrimidine-6-carboxylic acid amide]  2 nM
3. Cc1c(C(=O)NCC#CCN)sc2ncnc(Nc3ccc(F)cc3O[C@H]3CC[C@H](O)CC3)c12 [Example 160]  6 nM
4. CNC(=O)c1sc2ncnc(Nc3ccc(F)cc3O[C@H]3CC[C@H](NC(C)=O)C3)c2c1C [Example 235]  6 nM
5. Cc1c(C(N)=O)sc2ncnc(Nc3ccc(F)cc3OC3CCC(F)(F)CC3)c12 [Example 33, 4-[2-(4,4-Difluoro-cyclohexyloxy)-4-fluoro-phenylamino]-5-methyl-thieno[2,3-d]pyrimidine-6-carboxylic acid amide]  7 nM
6. Cc1c(C(N)=O)sc2ncnc(Nc3ccc(F)cc3O[C@H]3CC[C@H](N)C3)c12 [Example 229, 4-[2-((1S,3S)-3-Amino-cyclopentyloxy)-4-fluoro-phenylamino]-5-methyl-thieno[2,3-d]pyrimidine-6-carboxylic acid amide trifluoroacetate]  7 nM
7. CO[C@H]1CC[C@H](Oc2cc(F)ccc2Nc2ncnc3sc(C(=O)NCCCN4C(=O)CCC4=O)c(C)c23)CC1 [Example 280]  9 nM
8. Cc1c(C(=O)O)sc2ncnc(Nc3cccnc3O[C@H]3CC[C@H](N)CC3)c12 [Example 282, 4-[2-(4-Amino-cyclohexyloxy)-pyridin-3-ylamino]-5-methyl-thieno[2,3-d]pyrimidine-6-carboxylic acid]  11 nM
9. CC(=O)N(C)[C@H]1CC[C@H](Oc2cc(F)ccc2Nc2ncnc3sc(C(N)=O)c(C)c23)C1 [Example 240, 4-{2-[(1S,3S)-3-(Acetyl-methyl-amino)-cyclopentyloxy]-4-fluoro-phenylamino}-5-methyl-thieno[2,3-d]pyrimidine-6-carboxylic acid amide]  13 nM
10. Cc1c(C(N)=O)sc2ncnc(Nc3ccc(F)cc3O[C@H]3CC[C@H](NC4CCN(C)CC4)CC3)c12 [Example 16, 4-(4-Fluoro-2-(trans-4-(1-methylpiperidin-4-ylamino)cyclohexyloxy)phenylamino)-5-methylthieno[2,3-d]pyrimidine-6-carboxamide]  13 nM
11. CO[C@H]1CC[C@H](Oc2cc(F)ccc2Nc2ncnc3sc(C(=O)NCC(O)CN(C)C)c(C)c23)CC1 (some centres unmarked) [Example 277]  13 nM
12. CO[C@H]1CCC[C@@H](Oc2ncccc2Nc2ncnc3sc(C(=O)NCC#CCN)c(C)c23)C1 (racemic) [Example 112]  13 nM
13. Cc1c(C(N)=O)sc2ncnc(Nc3ccc(F)cc3O[C@H]3CCCC[C@@H]3O)c12 [Example 51, 4-[4-Fluoro-2-((1S,2S)-2-hydroxy-cyclohexyloxy)-phenylamino]-5-methyl-thieno[2,3-d]pyrimidine-6-carboxylic acid amide]  13 nM
14. CO[C@@H]1CCCC[C@H]1Oc1cc(F)ccc1Nc1ncnc2sc(C(=O)NCC[S+](C)[O-])c(C)c12 (some centres unmarked) [Example 255]  14 nM
15. COC1CCCC(Oc2cc(F)ccc2Nc2ncnc3sc(C(=O)NCC#CCN(C)C)c(C)c23)C1 (centres unmarked) [Example 96]  14 nM
16. CO[C@H]1CC[C@H](Oc2cc(F)ccc2Nc2ncnc3sc(C(=O)NCC#N)c(C)c23)CC1 [Example 182]  15 nM
17. CC(=O)N[C@H]1CC[C@H](Oc2cc(F)ccc2Nc2ncnc3sc(C(=O)NCCCN4CCCC4)c(C)c23)C1 [Example 239]  15 nM
18. CO[C@H]1CC[C@H](Oc2cc(F)ccc2Nc2ncnc3sc(C(=O)NCC#CCN)c(C)c23)CC1 [Example 178]  16 nM
19. CO[C@H]1CC[C@H](Oc2cc(F)ccc2Nc2ncnc3sc(C(=O)NCCCN4CCC(O)C4)c(C)c23)CC1 (stereo partly drawn) [Example 201, 4-[4-Fluoro-2-(trans-4-methoxy-cyclohexyloxy)-phenylamino]-5-methyl-thieno[2,3-d]pyrimidine-6-carboxylic acid [3-(3-hydroxy-pyrrolidin-1-yl)-propyl]-amide]  16 nM
20. CONC(=O)c1sc2ncnc(Nc3ccc(F)cc3O[C@H]3CC[C@H](NC(C)=O)C3)c2c1C [Example 236]  16 nM
21. CO[C@H]1CC[C@H](Oc2cc(F)ccc2Nc2ncnc3sc(C(=O)NCCO)c(C)c23)CC1 [Example 196]  17 nM
22. COC1CCCC(Oc2cc(F)ccc2Nc2ncnc3sc(C(=O)NCC4CNCCO4)c(C)c23)C1 (mixture of isomers) [Example 98]  17 nM
23. COC1CCCC(Oc2cc(F)ccc2Nc2ncnc3sc(C(=O)NCc4cn(C)cn4)c(C)c23)C1 (centres unmarked) [Example 107]  18 nM
24. COC1CCCCC1Oc1cc(F)ccc1Nc1ncnc2sc(C(=O)NC3CCCC3O)c(C)c12 (centres unmarked) [Example 250]  19 nM
25. CO[C@H]1CC[C@H](Oc2cc(F)ccc2Nc2ncnc3sc(C(=O)NCCCO)c(C)c23)CC1 [Example 195]  19 nM
26. CC(=O)N[C@H]1C[C@H](Oc2cc(F)ccc2Nc2ncnc3sc(C(N)=O)c(C)c23)C1 [Example 35.3, 4-[2-(trans-3-Acetylamino-cyclobutoxy)-4-fluoro-phenylamino]-5-methyl-thieno[2,3-d]pyrimidine-6-carboxylic acid amide]  23 nM
27. Cc1c(C(=O)NC2CCN(C)CC2)sc2ncnc(Nc3cccnc3O[C@H]3CC[C@H](O)CC3)c12 [Example 269]  24 nM
28. CCNC(=O)c1sc2ncnc(Nc3ccc(F)cc3O[C@@H]3CCC[C@@H](O)C3)c2c1C (racemic) [Example 78]  25 nM
29. Cc1c(C(=O)NCC2COCCN2)sc2ncnc(Nc3ccc(F)cc3OC3CCCC(O)C3)c12 (mixture of isomers) [Example 68]  31 nM
30. Cc1c(C(N)=O)sc2ncnc(Nc3ccc(F)cc3O[C@@H]3CCCC[C@@H]3O)c12 (racemic) [Example 56, Racemic 4-[4-Fluoro-2-((cis)-2-hydroxy-cyclohexyloxy)-phenylamino]-5-methyl-thieno[2,3-d]pyrimidine-6-carboxylic acid amide]  33 nM
31. Cc1c(C(=O)NC2CC2N)sc2ncnc(Nc3ccc(F)cc3OC3CCCC(O)C3)c12 (mixture of isomers) [Example 59]  34 nM
32. Cc1c(C(=O)NCC(C)O)sc2ncnc(Nc3ccc(F)cc3OC3CCCC(O)C3)c12 (mixture of isomers) [Example 73]  43 nM
33. CO[C@H]1CC[C@H](Oc2cc(F)ccc2Nc2ncnc3sc(C(=O)NCCN(C)C)c(C)c23)CC1 [Example 193]  43 nM
34. CO[C@@H]1CCC[C@@H](Oc2ncccc2Nc2ncnc3sc(C(=O)NCC#N)c(C)c23)C1 (racemic) [Example 136]  44 nM
35. Cc1c(C(=O)NC2CCN(C)CC2)sc2ncnc(Nc3ccc(F)cc3OC3CCCCC3O)c12 (single isomer, unassigned) [Example 265]  54 nM
36. CC(=O)N[C@H]1C[C@H](Oc2cc(F)ccc2Nc2ncnc3sc(C(=O)NCCCN4CCCC4)c(C)c23)C1 [Example 39]  61 nM
37. COCCNC(=O)c1sc2ncnc(Nc3ccc(F)cc3O[C@@H]3CCCC[C@H]3O)c2c1C [Example 54, 4-[4-Fluoro-2-((1R,2R)-2-hydroxy-cyclohexyloxy)-phenylamino]-5-methyl-thieno[2,3-d]pyrimidine-6-carboxylic acid (2-methoxy-ethyl)-amide]  62 nM
38. COCCN(C)[C@H]1CC[C@H](Oc2cc(F)ccc2Nc2ncnc3sc(C(N)=O)c(C)c23)CC1 [Example 22, 4-(4-Fluoro-2-(trans-4-((2-methoxyethyl)(methyl)amino)cyclohexyloxy)phenylamino)-5-methylthieno[2,3-d]pyrimidine-6-carboxamide]  65 nM
39. CO[C@@H]1CCC[C@@H](Oc2ncccc2Nc2ncnc3sc(C(=O)NCCCN4CCOCC4)c(C)c23)C1 (racemic) [Example 139]  84 nM
40. CO[C@@H]1CCC[C@@H](Oc2ncccc2Nc2ncnc3sc(C(=O)NCCCCO)c(C)c23)C1 (racemic) [Example 134]  86 nM
41. COC1CCCC(Oc2ncccc2Nc2ncnc3sc(C(=O)NCC4COCCN4)c(C)c23)C1 (mixture of isomers) [Example 141]  89 nM
42. CC(=O)N[C@H]1CCC[C@@H]1Oc1cc(F)ccc1Nc1ncnc2sc(C(N)=O)c(C)c12 [Example 295, (1S,2S) 4-{2-[2-(Acetyl-amino)-cyclopentyloxy]-4-fluoro-phenylamino}-5-methyl thieno[2,3-d]pyrimidine-6-carboxylic acid amide]  95 nM
43. COC1CCCC(Oc2ncccc2Nc2ncnc3sc(C(=O)NCC(C)O)c(C)c23)C1 (mixture of isomers) [Example 146]  105 nM
44. COC(=O)c1sc2ncnc(Nc3ccc(F)cc3OC3CCC(=O)CC3)c2c1C [Example 20, Methyl 4-(4-fluoro-2-(4-oxocyclohexyloxy)phenylamino)-5-methylthieno[2,3-d]pyrimidine-6-carboxylate]  360 nM
45. Cc1c(C(N)=O)sc2ncnc(Nc3ccc(F)cc3O[C@H]3CCC[C@@H]3NC(=O)C3CC3)c12 [Example 293, (1S,2S) 4-{2-[2-(Cyclopropanecarbonyl-amino)-cyclopentyloxy]-4-fluoro-phenylamino}-5-methyl thieno[2,3-d]pyrimidine-6-carboxylic acid amide]  377 nM
46. Cc1c(C(N)=O)sc2ncnc(Nc3ccc(F)cc3O[C@@H]3CCCC[C@H]3N(C)S(C)(=O)=O)c12 (racemic) [Example 13, Racemic 4-(4-Fluoro-2-(trans-2-(N-methylmethylsulfonamido)cyclohexyloxy)phenylamino)-5-methylthieno[2,3-d]pyrimidine-6-carboxamide]  440 nM
47. CC(=O)N(C)[C@@H]1CCCC[C@H]1Oc1cc(F)ccc1Nc1ncnc2sc(C(N)=O)c(C)c12 (racemic) [Example 14, Racemic 4-(4-fluoro-2-(trans-2-(N-methylacetamido)cyclohexyloxy)phenylamino)-5-methylthieno[2,3-d]pyrimidine-6-carboxamide]  1600 nM
